ChEMBL document CHEMBL1275255, “Role of Fks1p and matrix glucan in Candida albicans biofilm resistance to an echinocandin, pyrimidine, and polyene” (2010)
In brackets after ≈: the same amount, converted by molar mass. Starred links: 1 amine or outer side, 2 acyl side, 3 side chain; linkers in the order of their positions; H or OH if unused. Positions of bridges follow the written chain, without caps; N, C: chain ends. Non-standard residues stand in square brackets, D forms with d. Residues, ends and D or L forms follow the SMILES beside them. *: point of attachment. pTerphenylCO(4''-OnC5H11) = CCCCCOc1ccc(-c2ccc(-c3ccc(C(=O)*)cc3)cc2)cc1; Orn(4R-OH,5R-OH) = O=C([C@H](C[C@@H](O)[C@@H](O)N[*:3])N[*:1])[*:2]; hTyr(3S-OH,4S-OH) = N[C@H](C(=O)O)[C@H](O)[C@@H](O)c1ccc(O)cc1; Pro(3S-OH,4S-Me) = C[C@H]1CN[C@H](C(=O)O)[C@H]1O; Hyp = O=C(O)[C@@H]1C[C@@H](O)CN1

Experiments:
Type in all cases: functional
Candida albicans [1] = assay: Antifungal activity against […] gene deficient Candida albicans
Candida albicans [2] = assay: Antifungal activity against Candida albicans TDH3 overexpressing FKS1 gene
Candida albicans [3] = assay: Antifungal activity against Candida albicans grown as planktonic cell after 24 hrs by XTT reduction assay
Candida albicans [4] = assay: Antifungal activity against […] gene deficient Candida albicans assessed as decrease in biofilm formation at 0.25 ug/ml; set-up: scale not given: the % may be the effect or the level left
Candida albicans [5] = assay: Antifungal activity against Candida albicans assessed as decrease in biofilm formation at 0.25 ug/ml; set-up: scale not given: the % may be the effect or the level left

SMILES | MIC (Candida albicans [1]) | MIC (Candida albicans [2]) | MIC (Candida albicans [3]) | Activity (Candida albicans [4]) | Activity (Candida albicans [5])
Nc1nc(=O)[nH]cc1F [FLUCYTOSINE] | 0.03 µg/mL (≈ 0.232 µM) | 0.03 µg/mL (≈ 0.232 µM) | 0.03 µg/mL (≈ 0.232 µM) |  | 
CCCCCOc1ccc(-c2ccc(-c3ccc(C(=O)N[C@H]4C[C@@H](O)[C@@H](O)NC(=O)[C@@H]5[C@@H](O)[C@@H](C)CN5C(=O)[C@H]([C@@H](C)O)NC(=O)[C@H]([C@H](O)[C@@H](O)c5ccc(O)cc5)NC(=O)[C@@H]5C[C@@H](O)CN5C(=O)[C@H]([C@@H](C)O)NC4=O)cc3)cc2)cc1 [ANIDULAFUNGIN] ({pTerphenylCO(4''-OnC5H11)}-[Orn(4R-OH,5R-OH)]T[Hyp][hTyr(3S-OH,4S-OH)]T[Pro(3S-OH,4S-Me)]; lactam 1-C) | 0.01 µg/mL (≈ 0.00877 µM) | 0.01 µg/mL (≈ 0.00877 µM) | 0.01 µg/mL (≈ 0.00877 µM) |  | 
C[C@@H]1[C@H](O)[C@@H](C)/C=C/C=C/C=C/C=C/C=C/C=C/C=C/[C@H](O[C@@H]2O[C@H](C)[C@@H](O)[C@H](N)[C@@H]2O)C[C@@H]2O[C@](O)(C[C@@H](O)C[C@@H](O)[C@H](O)CC[C@@H](O)C[C@@H](O)CC(=O)O[C@H]1C)C[C@H](O)[C@H]2C(=O)O [AMPHOTERICIN B] |  |  |  | 80% | 60%
